Source: patent publication US7163941B2, “Pyrido[2,3-d]pyrimidin-7-carboxylic acid derivatives, their manufacture and use as pharmaceutical agents” (Hoffmann-La Roche Inc., priority 2003, dated 2007)

Experiments:
[1] = target: T1, Src (p60^c-src, partially purified) (Homo sapiens, UniProt P12931); assay: SRC-Inhibitor-Assay (time-resolved fluorescence), Src enzyme; assay type: biochemical; conditions: ATP 5 μM, peptide 10 μM, enzyme 2.5 U/ml, pre-incubation 15 min at 15° C.
T1 construct: purchased Upstate (UBI)
T1 sequence (P12931 whole entry, species assumed): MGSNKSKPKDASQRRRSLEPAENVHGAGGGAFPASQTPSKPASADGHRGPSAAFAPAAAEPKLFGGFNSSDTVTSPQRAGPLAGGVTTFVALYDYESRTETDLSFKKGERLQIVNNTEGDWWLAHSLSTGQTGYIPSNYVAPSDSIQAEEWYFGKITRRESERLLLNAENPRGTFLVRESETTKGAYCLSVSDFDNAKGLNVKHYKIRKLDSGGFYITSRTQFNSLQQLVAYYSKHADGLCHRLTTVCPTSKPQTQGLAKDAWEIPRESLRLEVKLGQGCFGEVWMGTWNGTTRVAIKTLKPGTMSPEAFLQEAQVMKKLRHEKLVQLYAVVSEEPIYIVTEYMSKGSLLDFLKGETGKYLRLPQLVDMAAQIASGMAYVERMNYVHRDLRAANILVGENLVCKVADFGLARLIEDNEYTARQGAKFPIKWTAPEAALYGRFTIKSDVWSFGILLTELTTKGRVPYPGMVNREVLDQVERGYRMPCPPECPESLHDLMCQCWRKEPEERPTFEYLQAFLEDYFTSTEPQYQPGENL
Method: (§1) The activity of the compounds according to this invention as inhibitors for the src-family tyrosine kinases was shown by using the following assay.
(§2) SRC-Inhibitor-Assay Parameters:
(§3) • Reaction mixture: • ATP 5 μM • Peptide (R+Ja133-Ro): 10 μM • Ja133-Ro 196 nM • Ro 9.8 μM • PT66 230 ng/ml • Assay buffer: 4 mM MgCl2 • 2 mM TCEP • 50 mM HEPES • 0,1% Tween 20 • pH 7.3 • Enzyme: 2.5 U/ml • Inhibitor: max. 25 μM • min. 0.42 nM Material: • Eu-labelled phosphotyrosine antibody: -for Lck Cisbio Mab PT66-K, • for Src EG&G Wallac PT66 Eu-W1024 (all commercially available). • Peptides: Ro: NH2-A-E-E-E-I-Y-G-E-F-E-A-K-K-K-K-CONH2 (SEQ ID NO: 1), and • Ja133-Ro: Ja133-G-Aminocaprylic acid-A-E-E-E-I-Y-G-E-F-E-A-K-K-K-K-CONH2 (SEQ ID NO: 2), wherein Ja133 is LightCycler-Red 640-N-hydroxy succinimide ester; • whereby both peptides were synthesized by an optimized solid phase peptide synthesis protocol (Merrifield, Fed. Proc. Fed. Amer. Soc. Exp. Biol. 21 (1962) 412) on a Zinsser SMP350 peptide synthesizer. Shortly, the peptide was assembled on 160 mg (22.8 μmol scale) of a Rink-Linker modified polystyrene solid phase by repeatedly conjugating an twenty fold excess of aminoacids each protected by temporary piperidine labile Fmoc- and permanent acid labile tert-Bu-, BOC- and Otert-Bu-groups depending on the side chain function. The substrate sequence AEEEIYGEFEAKKKK (SEQ ID NO: 1) was N-terminal additionally mounted with the spacer amino acids Aminocaprylic acid and Glycin. After cleavage of the N-terminal temporary protecting group the still attached and protected peptide was labeled with a 1.5 fold amount of LightCycler-Red 640-N-hydroxy succinimide ester (purchased by Roche Diagnostics GmbH) and triethylamine. After 3 hrs. the resin was washed with Dimethylformamide and Isopropanol until the eluates of the blue resin got colo-rless. […] The substrate was finally isolated by a preparative reverse phase HPLC purification. The purification yielded 12.2 mg RP-HPLC single peak pure blue material (lyophilisate). The identity was proven by MALDI mass spectroscopy [2720.0]. • Enzymes: Upstate Lck (p56^lck, active), Upstate Src (p60^c-src, partially purified) were purchased from UBI. • Time-resolved Fluorescence Assay: Reader: Perkin Elmer, Wallac Viktor 1420-040 multilabel counter; Liquid handling system: Beckman Coulter, Biomek 2000. ATP, Tween 20, HEPES were purchased from Roche Molecular Biochemicals, MgCl2 and MnCl2 were purchased from Merck Eurolab, TCEP was purchased from Pierce, 384 Well low volume fluorescence plates was purchased from Falcon. Assay Description:
(§4) At first the enzyme is pre-incubated for 15 min. at 15° C. in aqueous solution with corresponding amounts of inhibitors according to this invention. Then the phosphorylation reaction is started by adding a reaction mixture, containing ATP, Peptide and PT66, and subsequent shaking. The proceeding of this reaction is immediately monitored using time resolved fluorescence spectroscopy in a suitable well plate reader.
(§5) The IC50-values can be obtained from the reaction rates by using a non-linear curve fit (Excelfit).

[2] = target: T2, Lck (p56^lck, active) (Homo sapiens, UniProt P06239); assay: SRC-Inhibitor-Assay (time-resolved fluorescence), Lck enzyme; assay type: biochemical; conditions: ATP 5 μM, peptide 10 μM, enzyme 2.5 U/ml, pre-incubation 15 min at 15° C.
T2 construct: purchased Upstate (UBI)
T2 sequence (P06239 whole entry, species assumed): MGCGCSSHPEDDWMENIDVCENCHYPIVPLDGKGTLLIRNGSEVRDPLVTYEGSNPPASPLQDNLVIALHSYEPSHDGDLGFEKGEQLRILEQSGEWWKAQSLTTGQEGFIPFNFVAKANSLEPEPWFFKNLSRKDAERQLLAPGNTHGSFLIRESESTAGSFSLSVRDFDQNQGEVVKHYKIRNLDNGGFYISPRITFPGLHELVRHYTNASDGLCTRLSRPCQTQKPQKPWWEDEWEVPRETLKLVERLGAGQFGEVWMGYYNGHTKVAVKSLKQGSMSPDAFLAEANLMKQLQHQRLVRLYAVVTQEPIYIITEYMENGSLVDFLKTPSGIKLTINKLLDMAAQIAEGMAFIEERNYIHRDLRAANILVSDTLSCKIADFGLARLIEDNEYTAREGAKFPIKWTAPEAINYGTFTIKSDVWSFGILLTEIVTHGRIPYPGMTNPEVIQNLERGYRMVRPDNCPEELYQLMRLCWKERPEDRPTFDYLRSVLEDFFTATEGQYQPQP
Method: as §1, §2, §3, §4, §5

Structure (SMILES) | IC50 [1] [nM] | IC50 [2] [nM]
COc1cccc(Nc2ncc3cc(-c4ccccc4Br)c(C(=O)NCCNS(C)(=O)=O)nc3n2)c1 [Example 7-20, 6-(2-bromo-phenyl)-2-(3-methoxy-phenylamino)-pyrido[2,3-d]pyrimidine-7-carboxylic acid (2-methanesulfonylamino-ethyl)-amide] | 6.1 | 11.1
CNCCNC(=O)c1nc2nc(Nc3ccc(N4CCOCC4)cc3)ncc2cc1-c1ccccc1Br [Example 3-44, 6-(2-Bromo-phenyl)-2-(4-morpholin-4-yl-phenylamino)-pyrido[2,3-d]pyrimidine-7-carboxylic acid (2-methylamino-ethyl)-amide] | 1 | 2.5
NC(=O)NNC(=O)c1nc2nc(Nc3ccc(F)cc3)ncc2cc1-c1ccccc1Br [Example 3-18, 1-[6-(2-Bromo-phenyl)-2-(4-fluoro-phenylamino)-pyrido[2,3-d]pyrimidine-7-carbonyl]semicarbazide] | 24.8 | 68.4
O=C(NCCNc1ccccn1)c1nc2nc(Nc3ccc(F)cc3)ncc2cc1-c1ccccc1Br [Example 3-36, 6-(2-Bromo-phenyl)-2-(4-fluoro-phenylamino)-pyrido[2,3-d]pyrimidine-7-carboxylic acid [2-(pyridin-2-ylamino)-ethyl]-amide] | 165 | 256
O=C(NCCCO)c1nc2nc(Nc3ccc(F)cc3)ncc2cc1-c1ccccc1Br [Example 3-38, 6-(2-Bromo-phenyl)-2-(4-fluoro-phenylamino)-pyrido[2,3-d]pyrimidine-7-carboxylic acid (3-hydroxy-propyl)-amide] | 91.8 | 456
CCNCCOc1ccc(Nc2ncc3cc(-c4ccccc4Br)c(C#N)nc3n2)cc1 [Example 4-4, 6-(2-Bromo-phenyl)-2-[4-(2-ethylamino-ethoxy)-phenylamino]-pyrido[2,3-d]pyrimidine-7-carbonitrile] | 1.1 | 4.2
Cc1cc(CNC(=O)c2nc3nc(Nc4ccc(F)cc4)ncc3cc2-c2ccccc2Br)nn1C [Example 3-41, 6-(2-Bromo-phenyl)-2-(4-fluoro-phenylamino)-pyrido[2,3-d]pyrimidine-7-carboxylic acid (1,5-dimethyl-1H-pyrazol-3-ylmethyl)-amide] | 26 | 126
CS(=O)(=O)NCCNC(=O)c1nc2nc(Nc3ccc4c(c3)OC(CO)CO4)ncc2cc1-c1ccccc1Br (stereo not drawn) [Example 7-24, 6-(2-bromo-phenyl)-2-(3-hydroxymethyl-2,3-dihydro-benzo[1,4]dioxin-6-ylamino)-pyrido[2,3-d]pyrimidine-7-carboxylic acid (2-methanesulfonylamino-ethyl)-amide] | 4 | 9
O=C(NC1CN2CCC1CC2)c1nc2nc(Nc3ccc(F)cc3)ncc2cc1-c1ccccc1Br (stereo not drawn) [Example 3-35, 6-(2-Bromo-phenyl)-2-(4-fluoro-phenylamino)-pyrido[2,3-d]pyrimidine-7-carboxylic acid (1-aza-bicyclo[2.2.2]oct-3-yl)-amide] | 73.1 | 251
NC(=O)c1nc2nc(Nc3ccc(N4CCOCC4)cc3)ncc2cc1-c1ccccc1Br [Example 3-1, 6-(2-Bromo-phenyl)-2-(4-morpholin-4-yl-phenylamino)-pyrido[2,3-d]pyrimidine-7-carboxylic acid amide] | 3 | 23
O=C(Nc1cc[nH]n1)c1nc2nc(Nc3ccc(F)cc3)ncc2cc1-c1ccccc1Br [Example 3-49, 6-(2-Bromo-phenyl)-2-(4-fluoro-phenylamino)-pyrido[2,3-d]pyrimidine-7-carboxylic acid (1H-pyrazol-3-yl)-amide] | 4.3 | 7.3
CN1CCN(c2ccc(Nc3ncc4cc(-c5ccccc5Br)c(C(=O)NCCNS(C)(=O)=O)nc4n3)cc2)CC1 [Example 7-19, 6-(2-bromo-phenyl)-2-[4-(4-methyl-piperazin-1-yl)-phenylamino]-pyrido[2,3-d]pyrimidine-7-carboxylic acid (2-methanesulfonylamino-ethyl)-amide] | 1 | 2.1
CS(=O)(=O)c1cccc(Nc2ncc3cc(-c4ccccc4Br)c(C(N)=O)nc3n2)c1 [Example 3-7, 6-(2-Bromo-phenyl)-2-(3-methanesulfonyl-phenylamino)-pyrido[2,3-d]pyrimidine-7-carboxylic acid amide] | 16.6 | 113
CS(=O)(=O)NCCNC(=O)c1nc2nc(Nc3cccc(SCCO)c3)ncc2cc1-c1ccccc1Br [Example 7-23, 6-(2-bromo-phenyl)-2-[3-(2-hydroxy-ethylsulfanyl)-phenylamino]-pyrido[2,3-d]pyrimidine-7-carboxylic acid (2-methanesulfonylamino-ethyl)-amide] | 1 | 6.1
O=C(NCCN1CCOCC1)c1nc2nc(Nc3ccc(F)cc3)ncc2cc1-c1ccccc1Br [Example 3-22, 6-(2-Bromo-phenyl)-2-(4-fluoro-phenylamino)-pyrido[2,3-d]pyrimidine-7-carboxylic acid (2-morpholin-4-yl-ethyl)-amide] | 158 | 662
CN(C)CC(=O)NNC(=O)c1nc2nc(Nc3ccc(F)cc3)ncc2cc1-c1ccccc1Br [Example 3-46, 6-(2-Bromo-phenyl)-2-(4-fluoro-phenylamino)-pyrido[2,3-d]pyrimidine-7-carboxylic acid N′-(2-dimethylamino-acetyl)-hydrazide] | 16.8 | 38.1
CNCCNC(=O)c1nc2nc(Nc3ccc(F)cc3)ncc2cc1-c1ccccc1Br [Example 3-17, 6-(2-Bromo-phenyl)-2-(4-fluoro-phenylamino)-pyrido[2,3-d]pyrimidine-7-carboxylic acid (2-methylamino-ethyl)-amide] | 6.2 | 39.8
NS(=O)(=O)CCNC(=O)c1nc2nc(Nc3ccc4c(c3)S(=O)(=O)CCO4)ncc2cc1-c1ccccc1Br [Example 7-13, 6-(2-bromo-phenyl)-2-(4,4-dioxo-3,4-dihydro-2H-4lambda*6*-benzo[1,4]oxathiin-6-ylamino)-pyrido[2,3-d]pyrimidine-7-carboxylic acid (2-sulfamoyl-ethyl)-amide] | 11.3 | 232
O=C(NCCO)c1nc2nc(Nc3ccc(F)cc3)ncc2cc1-c1ccccc1Br [Example 3-45, 6-(2-Bromo-phenyl)-2-(4-fluoro-phenylamino)-pyrido[2,3-d]pyrimidine-7-carboxylic acid (2-hydroxy-ethyl)-amide] | 21.5 | 155
CC(=O)Nc1cccc(Nc2ncc3cc(-c4ccccc4Br)c(C(=O)NCCNS(C)(=O)=O)nc3n2)c1 [Example 7-21, 2-(3-acetylamino-phenylamino)-6-(2-bromo-phenyl)-pyrido[2,3-d]pyrimidine-7-carboxylic acid (2-methanesulfonylamino-ethyl)-amide] | 1.8 | 12
O=C(N[C@@H]1CCNC1)c1nc2nc(Nc3ccc(F)cc3)ncc2cc1-c1ccccc1Br [Example 3-29, (R)-6-(2-Bromo-phenyl)-2-(4-fluoro-phenylamino)-pyrido[2,3-d]pyrimidine-7-carboxylic acid pyrrolidin-3-ylamide] | 103 | 429
CNCCCNC(=O)c1nc2nc(Nc3ccc(F)cc3)ncc2cc1-c1ccccc1Br [Example 3-31, 6-(2-Bromo-phenyl)-2-(4-fluoro-phenylamino)-pyrido[2,3-d]pyrimidine-7-carboxylic acid (3-methylamino-propyl)-amide] | 42.8 | 100
CSc1cccc(Nc2ncc3cc(-c4ccccc4Br)c(C(N)=O)nc3n2)c1 [Example 3-3, 6-(2-Bromo-phenyl)-2-(3-methylsulfanyl-phenylamino)-pyrido[2,3-d]pyrimidine-7-carboxylic acid amide] | 7.8 | –
